{"source": "patent US20050222200A1", "about": "“AMIDE DERIVATIVES AS ION CHANNEL LIGANDS AND PHARMACEUTICAL COMPOSITIONS AND METHODS OF USING THE SAME” (Renovis, Inc., priority 2003, published 2005)"}
{"biological_target": "T1, VR1 (Homo sapiens, UniProt Q8NER1)", "T1 construct": "expressed in transfected cells; host or cells: 293 cells (\"293 neurons\" [sic])", "T1 sequence (Q8NER1 whole entry, species assumed)": "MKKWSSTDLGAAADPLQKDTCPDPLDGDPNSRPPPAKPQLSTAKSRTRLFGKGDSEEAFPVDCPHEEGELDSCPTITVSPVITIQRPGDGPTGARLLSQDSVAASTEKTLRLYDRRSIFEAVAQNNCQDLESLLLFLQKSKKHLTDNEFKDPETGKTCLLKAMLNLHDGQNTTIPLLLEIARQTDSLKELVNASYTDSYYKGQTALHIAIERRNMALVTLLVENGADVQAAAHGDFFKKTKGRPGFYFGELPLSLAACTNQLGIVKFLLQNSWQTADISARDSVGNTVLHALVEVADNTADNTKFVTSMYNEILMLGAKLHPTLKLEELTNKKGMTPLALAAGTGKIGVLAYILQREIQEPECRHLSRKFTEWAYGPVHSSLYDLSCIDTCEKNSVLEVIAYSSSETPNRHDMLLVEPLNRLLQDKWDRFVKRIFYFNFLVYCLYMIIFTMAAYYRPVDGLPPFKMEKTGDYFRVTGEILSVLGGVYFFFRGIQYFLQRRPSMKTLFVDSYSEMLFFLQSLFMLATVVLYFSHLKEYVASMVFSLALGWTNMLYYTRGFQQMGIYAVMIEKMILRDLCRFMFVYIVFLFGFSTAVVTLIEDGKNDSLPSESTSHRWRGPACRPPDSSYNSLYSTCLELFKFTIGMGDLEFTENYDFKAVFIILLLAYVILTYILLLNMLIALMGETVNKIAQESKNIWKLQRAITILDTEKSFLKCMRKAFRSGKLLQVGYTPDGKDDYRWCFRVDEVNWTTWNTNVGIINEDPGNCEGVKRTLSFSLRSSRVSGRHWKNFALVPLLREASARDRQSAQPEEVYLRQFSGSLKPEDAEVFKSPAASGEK", "experiment": "High throughput calcium imaging assay of VR1 antagonists (Fura2, Flex Station, 96 well)", "format": "cell-based", "details": "Table 1 activity class"}
{"smiles": "CCC/C=C/c1ccc(C(=O)Nc2cc[nH]n2)cc1", "note": "[Compound 204]", "inhibition of calcium ion influx induced by capsaicin stimulation": "+ (compound exhibited 0-25% inhibition of calcium ion influx induced by capsaicin stimulation)"}
{"smiles": "CCC/C=C/c1ccc(C(=O)Nc2nccs2)cc1", "note": "[Compound 205]", "inhibition of calcium ion influx induced by capsaicin stimulation": "+ (compound exhibited 0-25% inhibition of calcium ion influx induced by capsaicin stimulation)"}
{"smiles": "CCC/C=C/c1ccc(C(=O)NCC2CCCO2)cc1", "note": "(stereo not shown) [Compound 206]", "inhibition of calcium ion influx induced by capsaicin stimulation": "+ (compound exhibited 0-25% inhibition of calcium ion influx induced by capsaicin stimulation)"}
{"smiles": "CCC/C=C/c1ccc(C(=O)NC2CCC(Cc3ccccc3)CC2)cc1", "note": "(stereo not shown) [Compound 207]", "inhibition of calcium ion influx induced by capsaicin stimulation": "++ (compound exhibited 25-50% inhibition of calcium ion influx induced by capsaicin stimulation)"}
{"smiles": "CCC/C=C/c1ccc(C(=O)NCc2ccc3c(c2)OCO3)cc1", "note": "[Compound 208]", "inhibition of calcium ion influx induced by capsaicin stimulation": "+ (compound exhibited 0-25% inhibition of calcium ion influx induced by capsaicin stimulation)"}
{"smiles": "CCC/C=C/c1ccc(C(=O)NCCN2CCOCC2)cc1", "note": "[Compound 209]", "inhibition of calcium ion influx induced by capsaicin stimulation": "+ (compound exhibited 0-25% inhibition of calcium ion influx induced by capsaicin stimulation)"}
{"smiles": "CCC/C=C/c1ccc(C(=O)NCc2cccc(C(F)(F)F)c2)cc1", "note": "[Compound 211]", "inhibition of calcium ion influx induced by capsaicin stimulation": "+ (compound exhibited 0-25% inhibition of calcium ion influx induced by capsaicin stimulation)"}
{"smiles": "CCC/C=C/c1ccc(C(=O)NCc2cc(OC)c(OC)c(OC)c2)cc1", "note": "[Compound 213]", "inhibition of calcium ion influx induced by capsaicin stimulation": "+ (compound exhibited 0-25% inhibition of calcium ion influx induced by capsaicin stimulation)"}
{"smiles": "CCC/C=C/c1ccc(C(=O)NC2CCCC2)cc1", "note": "[Compound 214]", "inhibition of calcium ion influx induced by capsaicin stimulation": "+ (compound exhibited 0-25% inhibition of calcium ion influx induced by capsaicin stimulation)"}
{"smiles": "CCC/C=C/c1ccc(C(=O)NCc2ccccn2)cc1", "note": "[Compound 216]", "inhibition of calcium ion influx induced by capsaicin stimulation": "+ (compound exhibited 0-25% inhibition of calcium ion influx induced by capsaicin stimulation)"}
{"smiles": "CCC/C=C/c1ccc(C(=O)NCCc2ccc(OC)c(OC)c2)cc1", "note": "[Compound 217]", "inhibition of calcium ion influx induced by capsaicin stimulation": "+ (compound exhibited 0-25% inhibition of calcium ion influx induced by capsaicin stimulation)"}
{"smiles": "CCC/C=C/c1ccc(C(=O)NC(C)(C)CO)cc1", "note": "[Compound 218]", "inhibition of calcium ion influx induced by capsaicin stimulation": "+ (compound exhibited 0-25% inhibition of calcium ion influx induced by capsaicin stimulation)"}
{"smiles": "CCC/C=C/c1ccc(C(=O)NC(C)(C)c2ccccc2)cc1", "note": "[Compound 219]", "inhibition of calcium ion influx induced by capsaicin stimulation": "+ (compound exhibited 0-25% inhibition of calcium ion influx induced by capsaicin stimulation)"}
{"smiles": "CCC/C=C/c1ccc(C(=O)NCC)cc1", "note": "[Compound 223]", "inhibition of calcium ion influx induced by capsaicin stimulation": "+++ (compound exhibited 50-75% inhibition of calcium ion influx induced by capsaicin stimulation)"}
{"smiles": "CCC/C=C/c1ccc(C(=O)NCc2cccs2)cc1", "note": "[Compound 224]", "inhibition of calcium ion influx induced by capsaicin stimulation": "++ (compound exhibited 25-50% inhibition of calcium ion influx induced by capsaicin stimulation)"}
{"smiles": "CCC/C=C/c1ccc(C(=O)Nc2ccccc2C#N)cc1", "note": "[Compound 225]", "inhibition of calcium ion influx induced by capsaicin stimulation": "+ (compound exhibited 0-25% inhibition of calcium ion influx induced by capsaicin stimulation)"}
{"smiles": "CCC/C=C/c1ccc(C(=O)Nc2cccc(N(C)C)c2)cc1", "note": "[Compound 226]", "inhibition of calcium ion influx induced by capsaicin stimulation": "+++ (compound exhibited 50-75% inhibition of calcium ion influx induced by capsaicin stimulation)"}
{"smiles": "CCC/C=C/c1ccc(C(=O)Nc2ccc(N(CC)CC)cc2)cc1", "note": "[Compound 227]", "inhibition of calcium ion influx induced by capsaicin stimulation": "+ (compound exhibited 0-25% inhibition of calcium ion influx induced by capsaicin stimulation)"}
{"smiles": "CCC/C=C/c1ccc(C(=O)Nc2cccc(Cl)c2)cc1", "note": "[Compound 228]", "inhibition of calcium ion influx induced by capsaicin stimulation": "+++ (compound exhibited 50-75% inhibition of calcium ion influx induced by capsaicin stimulation)"}
{"smiles": "CCC/C=C/c1ccc(C(=O)Nc2ccccc2CCC)cc1", "note": "[Compound 230]", "inhibition of calcium ion influx induced by capsaicin stimulation": "+ (compound exhibited 0-25% inhibition of calcium ion influx induced by capsaicin stimulation)"}
{"biological_target": "VR1 (Rattus norvegicus, UniProt O35433)", "sequence (O35433 whole entry)": "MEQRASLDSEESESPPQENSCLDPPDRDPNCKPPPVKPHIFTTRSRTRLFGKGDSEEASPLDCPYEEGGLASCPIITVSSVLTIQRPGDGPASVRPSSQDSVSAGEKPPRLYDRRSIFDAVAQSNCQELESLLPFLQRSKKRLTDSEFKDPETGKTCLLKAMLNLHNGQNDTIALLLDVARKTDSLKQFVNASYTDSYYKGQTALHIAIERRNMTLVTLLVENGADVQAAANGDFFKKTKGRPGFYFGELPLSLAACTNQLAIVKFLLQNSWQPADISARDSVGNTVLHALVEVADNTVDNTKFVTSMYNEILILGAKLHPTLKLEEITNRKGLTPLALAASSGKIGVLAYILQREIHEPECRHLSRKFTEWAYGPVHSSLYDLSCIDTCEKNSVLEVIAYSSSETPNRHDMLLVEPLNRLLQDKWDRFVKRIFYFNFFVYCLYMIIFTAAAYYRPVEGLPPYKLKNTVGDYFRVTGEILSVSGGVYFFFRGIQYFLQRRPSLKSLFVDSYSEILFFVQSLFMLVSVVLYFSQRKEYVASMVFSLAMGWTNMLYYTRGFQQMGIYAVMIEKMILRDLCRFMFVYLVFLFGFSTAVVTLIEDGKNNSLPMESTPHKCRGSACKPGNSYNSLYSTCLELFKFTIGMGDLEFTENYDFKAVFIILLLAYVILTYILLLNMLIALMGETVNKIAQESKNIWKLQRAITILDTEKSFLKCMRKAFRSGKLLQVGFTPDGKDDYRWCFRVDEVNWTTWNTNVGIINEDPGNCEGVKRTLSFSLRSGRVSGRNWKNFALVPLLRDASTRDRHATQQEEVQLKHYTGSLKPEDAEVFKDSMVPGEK", "experiment": "Calcium imaging assay: inhibition of capsaicin induced calcium influx in DRG neurons (Fura2, microscope)", "format": "cell-based", "set-up": "endogenous in cells; host or cells: DRG neurons", "details": "capsaicin stimulation; class symbols per legend", "experimental": "VR1 protein is a heat-gated cation channel that […] resulting in neuronal membrane depolarization and elevated intracellular calcium levels. Therefore the functional activity of compounds at the VR1 receptor may be determined by measuring changes in intracellular calcium levels in neurons such as the dorsal root ganglion.\nDRG neurons were grown on PDL coated 96-well black-walled plates, in the presence of DMEM medium containing 5% Penstrep, 5% Glutamax, 200 μg/ml hygromycin, 5 μg/ml blasticide and 10% heat inactivated FBS. Prior to assay, cells were loaded with 5 μg/ml Fura2 in normal saline solution at 37° C for 40 minutes. Cells were then washed with normal saline to remove dye before commencement of the experiment.\nThe plated neurons were transferred into a chamber on the stage of a Nikon eclipse TE300 microscope after which neurons were allowed to attain a stable fluorescence for about 10 minutes before beginning the experiment. The assay consists of two stages, a pretreatment phase followed by a treatment phase. First, a solution of the test compound was added from a multivalve perfusion system to the cells for 1 minute (pretreatment). Immediately following, capsaicin (250 nM) was added in the presence of the test compound (treatment) for a specific period between 20 and 60 seconds.\nFura2 was excited at […] to indicate relative calcium ion concentration. Changes in wavelength measurements were made throughout the course of the experiment. The fluorescence ratio was calculated by dividing fluorescence measured at 340 nm by that at 380 nM. Data was collected using Intelligent Imaging’s Slidebook software. All compounds that inhibited capsaicin induced calcium influx greater than 75% were considered positives.\nFluorescence reflecting calcium ion influx is reduced."}
{"smiles": "CCC/C=C/c1ccc(C(=O)Nc2ccccc2Cl)cc1", "note": "[Compound 233]", "inhibition of calcium ion influx induced by capsaicin stimulation": "+ (compound exhibited 0-25% inhibition of calcium ion influx induced by capsaicin stimulation)"}
{"smiles": "CCC/C=C/c1ccc(C(=O)Nc2cc(C)ccn2)cc1", "note": "[Compound 234]", "inhibition of calcium ion influx induced by capsaicin stimulation": "+ (compound exhibited 0-25% inhibition of calcium ion influx induced by capsaicin stimulation)"}
{"smiles": "CCC/C=C/c1ccc(C(=O)NCC(C)C)cc1", "note": "[Compound 236]", "inhibition of calcium ion influx induced by capsaicin stimulation": "+ (compound exhibited 0-25% inhibition of calcium ion influx induced by capsaicin stimulation)"}
{"smiles": "CCC/C=C/c1ccc(C(=O)NC2CCN(C)CC2)cc1", "note": "[Compound 237]", "inhibition of calcium ion influx induced by capsaicin stimulation": "+ (compound exhibited 0-25% inhibition of calcium ion influx induced by capsaicin stimulation)"}
{"smiles": "CCC/C=C/c1ccc(C(=O)NCc2ccc(OC)c(OC)c2)cc1", "note": "[Compound 238]", "inhibition of calcium ion influx induced by capsaicin stimulation": "+ (compound exhibited 0-25% inhibition of calcium ion influx induced by capsaicin stimulation)"}
{"smiles": "CCC/C=C/c1ccc(C(=O)NCc2cccc(F)c2)cc1", "note": "[Compound 239]", "inhibition of calcium ion influx induced by capsaicin stimulation": "++ (compound exhibited 25-50% inhibition of calcium ion influx induced by capsaicin stimulation)"}
{"smiles": "CCC/C=C/c1ccc(C(=O)Nc2ccc(Cl)c(C(F)(F)F)c2)cc1", "note": "[Compound 242]", "inhibition of calcium ion influx induced by capsaicin stimulation": "++ (compound exhibited 25-50% inhibition of calcium ion influx induced by capsaicin stimulation)"}
{"smiles": "CCC/C=C/c1ccc(C(=O)Nc2cccc(C#N)c2)cc1", "note": "[Compound 244]", "inhibition of calcium ion influx induced by capsaicin stimulation": "++ (compound exhibited 25-50% inhibition of calcium ion influx induced by capsaicin stimulation)"}
{"smiles": "CCC/C=C/c1ccc(C(=O)Nc2ccccc2CCO)cc1", "note": "[Compound 245]", "inhibition of calcium ion influx induced by capsaicin stimulation": "+ (compound exhibited 0-25% inhibition of calcium ion influx induced by capsaicin stimulation)"}
{"smiles": "CCC/C=C/c1ccc(C(=O)Nc2ccc(C(C)(C)C)cc2)cc1", "note": "[Compound 246]", "inhibition of calcium ion influx induced by capsaicin stimulation": "+ (compound exhibited 0-25% inhibition of calcium ion influx induced by capsaicin stimulation)"}
{"smiles": "CCC/C=C/c1ccc(C(=O)Nc2ccc(C(C)C)cc2)cc1", "note": "[Compound 247]", "inhibition of calcium ion influx induced by capsaicin stimulation": "+ (compound exhibited 0-25% inhibition of calcium ion influx induced by capsaicin stimulation)"}
{"smiles": "CCC/C=C/c1ccc(C(=O)Nc2ccc(CCCC)cc2)cc1", "note": "[Compound 248]", "inhibition of calcium ion influx induced by capsaicin stimulation": "+++ (compound exhibited 50-75% inhibition of calcium ion influx induced by capsaicin stimulation)"}
{"smiles": "CCC/C=C/c1ccc(C(=O)Nc2cc(OC)cc(C(F)(F)F)c2)cc1", "note": "[Compound 249]", "inhibition of calcium ion influx induced by capsaicin stimulation": "+ (compound exhibited 0-25% inhibition of calcium ion influx induced by capsaicin stimulation)"}
{"smiles": "CCC/C=C/c1ccc(C(=O)Nc2ccc3[nH]ccc3c2)cc1", "note": "[Compound 252]", "inhibition of calcium ion influx induced by capsaicin stimulation": "+ (compound exhibited 0-25% inhibition of calcium ion influx induced by capsaicin stimulation)"}
{"smiles": "CCC/C=C/c1ccc(C(=O)Nc2cc(CC)ccn2)cc1", "note": "[Compound 256]", "inhibition of calcium ion influx induced by capsaicin stimulation": "+ (compound exhibited 0-25% inhibition of calcium ion influx induced by capsaicin stimulation)"}
{"smiles": "CCC/C=C/c1ccc(C(=O)Nc2ccc(Cl)nc2)cc1", "note": "[Compound 259]", "inhibition of calcium ion influx induced by capsaicin stimulation": "+ (compound exhibited 0-25% inhibition of calcium ion influx induced by capsaicin stimulation)"}
{"smiles": "CCC/C=C/c1ccc(C(=O)Nc2ccc(OC)nc2)cc1", "note": "[Compound 260]", "inhibition of calcium ion influx induced by capsaicin stimulation": "+ (compound exhibited 0-25% inhibition of calcium ion influx induced by capsaicin stimulation)"}
{"smiles": "CCC/C=C/c1ccc(C(=O)Nc2ccnc(Cl)c2)cc1", "note": "[Compound 261]", "inhibition of calcium ion influx induced by capsaicin stimulation": "+ (compound exhibited 0-25% inhibition of calcium ion influx induced by capsaicin stimulation)"}
{"smiles": "CCC/C=C/c1ccc(C(=O)NCc2cccnc2)cc1", "note": "[Compound 267]", "inhibition of calcium ion influx induced by capsaicin stimulation": "+ (compound exhibited 0-25% inhibition of calcium ion influx induced by capsaicin stimulation)"}
{"smiles": "COc1ccccc1CNC(=O)c1ccc(/C(C)=C/C(C)(C)C)cc1", "note": "[Compound 275]", "inhibition of calcium ion influx induced by capsaicin stimulation": "+ (compound exhibited 0-25% inhibition of calcium ion influx induced by capsaicin stimulation)"}
{"smiles": "C/C(=C\\C(C)(C)C)c1ccc(C(=O)NCc2ccncc2)cc1", "note": "[Compound 281]", "inhibition of calcium ion influx induced by capsaicin stimulation": "+ (compound exhibited 0-25% inhibition of calcium ion influx induced by capsaicin stimulation)"}
{"smiles": "C/C(=C\\C(C)(C)C)c1ccc(C(=O)NC(c2ccccc2)c2ccccc2)cc1", "note": "[Compound 283]", "inhibition of calcium ion influx induced by capsaicin stimulation": "+ (compound exhibited 0-25% inhibition of calcium ion influx induced by capsaicin stimulation)"}
{"smiles": "C/C(=C\\C(C)(C)C)c1ccc(C(=O)NCCc2ccccc2Cl)cc1", "note": "[Compound 286]", "inhibition of calcium ion influx induced by capsaicin stimulation": "+ (compound exhibited 0-25% inhibition of calcium ion influx induced by capsaicin stimulation)"}
